Measured values taken from PubChem BioAssay (NCI).
Values joined by “and” are separate entries in the source; they are usually repeats but may differ in a detail not shown here. Identical values can stand only once.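 Each compound was tested at five concentrations against cells in 96-well plates for 48 hours. Abbreviation: GI50, concentration required for 50% inhibition of growth. TGI marks complete inhibition of growth.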

Tests used:
Test in all cases: NCI-60 cell line screen, 48 h
[1] = tested on: MOLT-4 leukemia
[2] = tested on: A549 NSCLC
[3] = tested on: M14 melanoma
[4] = tested on: TK-10 renal
[5] = tested on: IGROV1 ovarian
[6] = tested on: OVCAR-3 ovarian
[7] = tested on: SF-268 CNS
[8] = tested on: HOP-92 NSCLC
[9] = tested on: PC-3 prostate
[10] = tested on: BT-549 breast

SMILES	TGI [1]	TGI [2] [µM]	TGI [3] [µM]	TGI [4] [µM]	TGI [5] [µM]	TGI [6] [µM]	TGI [7] [µM]	TGI [8] [µM]	GI50 [1] [µM]	GI50 [2] [µM]	GI50 [3] [µM]	GI50 [9] [µM]	TGI [9] [µM]	GI50 [4] [µM]	GI50 [5] [µM]	GI50 [6] [µM]	GI50 [10] [µM]	TGI [10] [µM]	GI50 [7] [µM]	GI50 [8] [µM]
CCOC(=O)CC(=O)ON(C)C(C)=O	> 100 µM	> 100	> 100	> 100	> 100	> 100	> 100													
c1ccc(COc2cccc3ccc[n+](Cc4ccccc4)c23)cc1	51.8 µM	> 100	60.2	94.6	25.7		> 100	34.2												
CCN1c2ccccc2C(C(SC)S(=O)(=O)c2ccc(C)cc2)c2c1[nH]c(=O)n(C)c2=O (stereo unspecified)	> 100 µM	> 100		> 100	> 100	> 100	> 100	> 100												
CC(C)OP(=O)(OC(C)C)C(=NCCN=C(NNc1ccc([N+](=O)[O-])cc1)P(=O)(OC(C)C)OC(C)C)NNc1ccc([N+](=O)[O-])cc1	> 100 µM	> 100	> 100	> 100	16.7	33.4	> 100	8.82												
CC(=O)[C@@]12O[C@@H]1CC1C3CCC4=CC(O)CCC4(C)C3CCC12C (stereo partly specified)	> 100 µM	> 100	> 100	56.9	> 100	> 100	> 100		> 100	72.7	95.9	40.3	> 100	15.9	31.8	78.5	27.8	> 100	83.5	
O=c1c2sccc2n(CC2COc3ccccc3O2)c(=O)n1O (stereo unspecified)	> 100 µM	> 100	> 100	> 100	> 100	44.9	> 100		21.3	23.3	21.2	18.2	> 100	30.9	15.4	10.4	12.1	> 100	13.6	
COc1cc(C2c3cc4c(cc3OC(C)(O)C2C)OCO4)cc(OC)c1OC (stereo unspecified)	25.9 µM	0.761			76.2	> 100	> 100						> 100					> 100		
C[Si](C)(C)C1(Sc2ccccc2)SCCCS1	85.1 µM	> 100	> 100	> 100	> 100	> 100	> 100	> 100												
OCC#Cc1ccccc1C#Cc1ccccc1	> 100 µM	45	22.5	26.6	> 100	20.3	35.3		3.95	16.5	10.6	11.5	24.1	13.6	30.3	6.9	13.2	27.8	17.1	
CSc1nc(NC2OCC(OC(C)=O)C(OC(C)=O)C2OC(C)=O)c(N=CC=Nc2c(NC3OCC(OC(C)=O)C(OC(C)=O)C3OC(C)=O)nc(SC)[nH]c2=O)c(=O)[nH]1 (stereo unspecified)	> 100 µM	> 100	> 100	> 100	> 100	> 100	> 100	> 100										> 100		
COC(OC)C(C)CC(=O)N(C)C (stereo unspecified)	> 100 µM	> 100	> 100	> 100	> 100	> 100	> 100	> 100												
CN(C)c1nc(=Nc2ccc(N=c3nc(N(C)C)ss3)cc2)ss1	51.3 µM	> 100	25.6	> 31.6	> 71.7	> 78.6	99.2	> 100												
[Cl-].[La+3].[O-]/N=C(\c1ccccc1)c1ccccn1.[O-]/N=C(\c1ccccc1)c1ccccn1.[O-]/N=C(\c1ccccc1)c1ccccn1	> 100 µM	> 100	41.4	> 100	> 100	> 100	> 100		37.6	41.8	20.2			> 74.4	51.5	39.2			46	
COc1ccc(S(=O)(=O)NNS(C)(=O)=O)cc1	> 100 µM	> 100	> 100	> 100	> 100		> 100													
CCCCCCN(CCCCCC)C(=O)Cc1c2n(c3ccccc13)Cc1ccccc1-2	> 100 µM	> 100	> 100	> 100		> 100	> 100	79.7												
CC1(C)C2CCC(=O)C1CC2 (stereo unspecified)	> 100 µM	> 100	> 100	> 100	> 100	> 100	> 100						> 100							
ClCc1cccc(Cn2cnc3ncnc(Cl)c32)c1	29.4 µM	39.6	14.6	3.3	13.8	3.23	3.5		10.6	17.2	3.05	2.13	5.32	1.76	3.38	1.77	13.1	28.6	1.66	
O=C(/C=C\c1ccc(Cl)c(Cl)c1)c1ccc(Cl)cc1Cl	7.86 µM and 48.4 µM	60.7	52.4		49.8	35.7	55.1													
COc1cc(NCc2ccc3oc(=O)c(-c4ccccc4)nc3c2)cc(OC)c1OC	> 10 µM	> 10	> 10	> 10	> 10	> 10	> 10	> 10					> 10							
O=C(CSc1ccc(Cl)cc1)Nc1ccc(-c2nc3ccccc3s2)c(Cl)c1	> 100 µM	> 100	33.8	40	75.8	8.01	22.4		4.37	5.84	4.87	2.42	8.23	5.3	0.744	2.43	2.76	8.53	3.24	

SMILES	TGI [1]	TGI [2] [µM]	TGI [3] [µM]	TGI [4] [µM]	TGI [5] [µM]	TGI [6] [µM]	TGI [7] [µM]	TGI [8] [µM]	GI50 [1] [µM]	GI50 [2] [µM]	GI50 [3] [µM]	GI50 [9] [µM]	TGI [9] [µM]	GI50 [4] [µM]	GI50 [5] [µM]	GI50 [6] [µM]	GI50 [10] [µM]	TGI [10] [µM]	GI50 [7] [µM]	GI50 [8] [µM]
C=C1C(=O)O[C@H]2[C@H]1CC/C(COC(=O)c1c[nH]c3ccccc13)=C\CC[C@@]1(C)O[C@@H]21	1.45 µM	3.3	0.651	0.736		0.483	1.07	0.45	0.282	1.5	0.229	0.384	2.03	0.28		0.207	0.175	0.414	0.294	0.169
COc1cc(OC)cc(-c2cc(=O)c3c(OC)c(OC)c(OC)c(OC)c3o2)c1	> 100 µM	> 100	> 100	> 100	> 100	> 100	> 100	90.8										> 100		
CCc1cc(Cc2cc(CC)c(NC(=O)C(=O)Cc3ccccn3)c(CC)c2Cl)c(Cl)c(CC)c1NC(=O)C(=O)Cc1ccccn1	> 100 µM	> 100	> 100	> 100	> 100	> 100	> 100	> 100												
CC(=O)/C(=C\c1cccc([N+](=O)[O-])c1)C(=O)Nc1ccccc1C	> 100 µM	> 100	> 100	> 100	> 100	> 100	> 100	> 100												
O=C1c2cc3c(cc2-c2c1c1ccc(F)cc1c(=O)n2CCCNCCO)OCO3	1.24 µM	0.188	1.09	0.487		0.826	1.16	0.845	0.024	0.0339	0.0367	0.144	1.47	0.148		0.0751	0.238	1.34	0.0537	0.198
Cc1ccc(S(=O)(=O)Nc2ccccc2C(=O)c2ccc(C)c(C)c2)cc1		> 100	> 100	> 100	> 100	> 100	> 100						> 100					> 100		
COc1cc(/C=C2\CN(S(=O)(=O)c3ccccc3)C/C(=C\c3cc(CN4CCCC4)c(O)c(OC)c3)C2=O)cc(CN2CCCC2)c1O		> 100		7.73	3.29	3.05	4.06	4.69		3.61		1.41	3.91	3.18	1.54	1.02	1.99	5.14	1.45	1.51
CCOC(=O)C(=C=C=C(c1ccccc1)c1ccccc1)C(=O)OCC	30.8 µM	74.5	41.5	31.3	37.9	31	63.5	31.3												
O=S1(=O)OCCOS(=O)(=O)C1Br	> 100 µM	> 100	> 100	> 100	> 100	> 100	> 100	> 100												
C/C(=N\NC(=S)NC(CCC(=O)O)C(=O)O)c1ccccn1 (stereo unspecified)	> 100 µM	> 100	> 100	> 100	> 100	> 100	> 100	> 100												
CC(C)=Cc1cc(C(=O)Nc2ccc(Cl)c(Cl)c2)nc(N)n1	> 100 µM	> 100	> 100	> 100	> 100	> 100	> 100	> 100												
CCOC(=O)NC(=O)c1cn(CCCO)c(=O)[nH]c1=O	> 100 µM	> 100	> 100	> 100	> 100	> 100	> 100	> 100												
Brc1ccccc1C1SCc2nc3ccccc3n21 (stereo unspecified)	> 100 µM	> 100	31.4	49.3	70.6	26.7	66.1	26.8												
O=c1cc(-c2ccccc2)oc2cc(OCCCOc3ccc4c(=O)cc(-c5ccccc5)oc4c3)ccc12	> 100 µM	> 100	> 100	> 100	> 100	> 100		> 100												
CC(=O)OC1COC(n2ccc3cc(Br)c([N+](=O)[O-])cc32)C(OC(C)=O)C1OC(C)=O (stereo unspecified)		92.3	> 100	81.7	> 100	65.6	> 100	42												
Cn1c2ccccc2c2cc(-c3ccccc3)c3c(c21)C(=O)c1ccccc1C3=O	92.7 µM	79.1	33.4	> 100	58.5	36.4	91.8	26.3												
CN(C)c1ccc(/C=C(\NC(=O)c2ccccc2)c2nc3ncncc3[nH]2)cc1	> 100 µM	> 100	> 100	> 100	> 100	> 100	> 100	> 100												
CN1CCN(CCCn2c(=O)c3sc4ncccc4c3n3nnc(-c4ccccc4)c23)CC1	4.95 µM	13.8	7.38	13.6	13.8	7.58	13.2	12.9	1.55	6.81	2.13	6.27	13.4	6.92	5.93	2.3			6.45	5.8
OCCCCCNCc1cc2cc3c(cc2c2cc(OCc4ccccc4)ccc12)OCO3	4.55 µM	2.89	3.45	2.95		3.14		2.84	1.41	1.55	1.94			1.55		1.68	1.62	2.98		1.23
Clc1ccc(C(c2ccc(Cl)cc2)c2ccccn2)cc1	56.6 µM	38.6	38	45.3	> 100		69.7	30.1												
